Common to all, as to assay type: cell-based
The target of assay [1] is T1, CFTR (Homo sapiens, UniProt P13569).
T1 construct: expressed in transfected cells; host or cells: FRT cells co-expressing a YFP halide indicator
Put plainly: CFTR conductance in FRT cells expressing wild type CFTR and YFP indicator. The note with it: 10 μM, 5 min pretreatment; forskolin 10 μM. Here is the method:
(§1) FIG. 2A-E. Characterization of TMEM16A activators. FIG. 2A. Cytoplasmic calcium measured by Fluo-4 fluorescence. 100 μM ATP (gray line) or 10 μM of indicated TMEM16A activators were added at the arrow. FIG. 2B. Apical membrane current measured in TMEM16A-expressing FRT cells in the presence of a transepithelial chloride gradient and after basolateral membrane permeabilization. […] T16Ainh-A01 (10 μM) added where indicated. […] (right) Concentration-activation data summary (mean±S.E., n=4-6). FIG. 2C. Synergistic effect of Eact and Fact. (left and center) Representative current traces showing synergy. (right) Data summary of low doses of TMEM16A activation (mean±S.E., n=5, * P<0.05). FIG. 2D. Apical membrane current measured in FRT cells transfected with mouse TMEM16A or TMEM16B. FIG. 2E. Effect of Eact and Fact on CFTR and ENaC. (left) FRT cells expressing wild type CFTR and YFP indicator were pretreated for 5 min with 10 μM Eact and Fact. Forskolin (10 μM) added as indicated. (right) HBE cells were pre-treated for 5 min with 10 μM Eact and Fact, with amiloride (10 μM) added as indicated.

Assay [2] relates to cytoplasmic Ca^2+ in FRT cells. The assay is described as follows: Cytoplasmic calcium measured by Fluo-4 fluorescence. The note with it: 10 μM activator. Here is the method: as §1
FRT cells in 96-well black-walled microplates were loaded with Fluo-4 NW per the manufacturer's protocol (Invitrogen, Carlsbad, Calif.). Fluo-4 fluorescence was measured with a FLUOstar Optima fluorescence plate reader equipped with syringe pumps and custom Fluo-4 excitation/emission filters (485/538 nm).

The test system of assay [3] is CF human bronchial epithelial (CF HBE) cells. The assay is described as follows: Short-circuit current in CF HBE cells. Here is the method:
FIG. 5A-B. Airway epithelial chloride secretion. FIG. 5A. Short-circuit current in CF HBE cells. Eact and UTP (100 μM) were added in control (left) and IL-4 (10 ng/ml, 24 h, middle) treated CF HBE cells. (right) Summary of Eact-induced, T16Ainh-A01-sensitive peak current (mean±S.E., n=6-8, * P<0.05). ENaC was inhibited by 10 μM amiloride. FIG. 5B. Eact (10 μM) and UTP (100 μM) induced CaCC Cl^− current measured in primary cultures of non-CF human tracheal gland (HTG) serous cells. (left and gmiddle) TMEM16A, CFTR and ENaC were inhibited by pretreatment with T16Ainh-A01, CFTRinh-172 and amiloride, respectively. Inset: TMEM16A immunoblot in whole cell homogenates of CF HBE and HTG cells. (right) Summary of UTP and Eact-induced peak current in the presence and absence of T16Ainh-A01 (mean±S.E., n=3, * P<0.05).
Tracheal and bronchial tissues were obtained from non-CF and CF patients following lung transplantation or from postmortem examinations performed within 24 h after death. […]
Snapwell inserts containing TMEM16A-expressing FRT, HBE, CF HBE or HTG cells were mounted in Ussing chambers (Physiologic Instruments, San Diego, Calif.). […] Apical membrane current (for FRT cells) and short-circuit current were measured using an EVC4000 Multi-Channel V/I Clamp (World Precision Instruments, Sarasota, Fla.) and recorded using PowerLab/8sp (AD Instruments, Castle Hill, Australia).

Experimental findings from patent US9790218B2, “Small molecule activators of calcium-activated chloride channels and methods of use” (The Regents of the University of California, priority 2011, dated 2017) are described below.

T1 sequence (P13569 whole entry): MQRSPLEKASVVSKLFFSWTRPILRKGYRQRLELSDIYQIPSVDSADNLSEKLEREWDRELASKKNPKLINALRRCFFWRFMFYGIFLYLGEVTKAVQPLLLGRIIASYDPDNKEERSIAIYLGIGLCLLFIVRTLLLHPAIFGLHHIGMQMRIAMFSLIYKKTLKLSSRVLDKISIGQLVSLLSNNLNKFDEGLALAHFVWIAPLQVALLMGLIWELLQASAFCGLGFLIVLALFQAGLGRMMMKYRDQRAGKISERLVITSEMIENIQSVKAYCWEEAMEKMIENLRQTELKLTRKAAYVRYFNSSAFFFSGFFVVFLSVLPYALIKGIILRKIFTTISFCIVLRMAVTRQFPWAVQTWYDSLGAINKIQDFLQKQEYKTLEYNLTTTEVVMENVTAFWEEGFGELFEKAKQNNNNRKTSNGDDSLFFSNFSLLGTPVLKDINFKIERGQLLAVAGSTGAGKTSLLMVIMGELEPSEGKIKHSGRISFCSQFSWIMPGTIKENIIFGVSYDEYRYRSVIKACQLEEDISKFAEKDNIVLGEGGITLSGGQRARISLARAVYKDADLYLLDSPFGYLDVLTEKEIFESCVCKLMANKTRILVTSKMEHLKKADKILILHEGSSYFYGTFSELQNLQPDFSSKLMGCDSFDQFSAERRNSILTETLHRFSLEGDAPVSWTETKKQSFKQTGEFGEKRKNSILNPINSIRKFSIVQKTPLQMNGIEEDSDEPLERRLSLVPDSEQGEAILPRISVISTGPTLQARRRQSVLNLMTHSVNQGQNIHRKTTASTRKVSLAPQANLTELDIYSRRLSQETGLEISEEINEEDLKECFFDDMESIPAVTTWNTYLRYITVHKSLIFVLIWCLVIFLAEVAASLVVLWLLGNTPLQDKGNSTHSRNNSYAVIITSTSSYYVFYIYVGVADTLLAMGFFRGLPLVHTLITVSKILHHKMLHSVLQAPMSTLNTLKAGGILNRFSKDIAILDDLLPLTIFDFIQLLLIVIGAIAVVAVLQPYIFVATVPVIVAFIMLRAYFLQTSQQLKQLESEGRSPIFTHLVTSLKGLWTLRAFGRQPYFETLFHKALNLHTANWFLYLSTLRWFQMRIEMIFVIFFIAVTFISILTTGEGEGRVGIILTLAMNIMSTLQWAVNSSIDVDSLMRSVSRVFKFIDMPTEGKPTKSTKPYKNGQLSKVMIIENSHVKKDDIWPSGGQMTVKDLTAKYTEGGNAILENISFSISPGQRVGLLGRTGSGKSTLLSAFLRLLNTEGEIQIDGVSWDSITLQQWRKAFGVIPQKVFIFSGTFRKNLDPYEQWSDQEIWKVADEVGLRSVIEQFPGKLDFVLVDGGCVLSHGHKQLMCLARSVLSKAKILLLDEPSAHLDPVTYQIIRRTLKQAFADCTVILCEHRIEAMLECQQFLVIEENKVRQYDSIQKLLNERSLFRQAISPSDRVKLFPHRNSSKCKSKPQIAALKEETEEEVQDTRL

`O=C(Nc1ccc(Br)cc1)c1cccc(-n2cnnn2)c1` [Fact, N-(4-bromophenyl)-3-(1H-tetrazol-1-yl)benzamide]: the “effect on CFTR conductance” value in assay [1] is given as “Neither Eact nor Fact affected”. Also, the “effect on cytoplasmic Ca^2+” value in assay [2] was “did not elevate Ca^2+”. Regarding `CCc1c(C)nc(SCC(=O)Nc2nc(-c3ccc(OC)cc3)cs2)[nH]c1=O` [T16Ainh-A01, reference compound], the “block of Eact-induced Cl^− current in IL-4 treated CF bronchial cells” value in assay [3] is “blocked”.
